Measurements: US8691865B2 (AbbVie Inc., priority 2008, dated 2014)

Biological target: human Cav2.2 (Homo sapiens, UniProt Q00975)
Test: Assessment of calcium channel activity using FLIPR (Ca2+ influx in IMR32 cells)
Type: cell-based
Conditions: not given
How it was run: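 IC50 values derive from nonlinear sigmoidal fitting of percent inhibition, relative to inhibitor-free activity, of Ca2+ influx read by FLIPR. Cells were IMR32 human neuroblastoma, plated at 1−1.2×10^5 per well and grown 48 h at 37 °C.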

Chain of human Cav2.2 (Q00975 whole entry): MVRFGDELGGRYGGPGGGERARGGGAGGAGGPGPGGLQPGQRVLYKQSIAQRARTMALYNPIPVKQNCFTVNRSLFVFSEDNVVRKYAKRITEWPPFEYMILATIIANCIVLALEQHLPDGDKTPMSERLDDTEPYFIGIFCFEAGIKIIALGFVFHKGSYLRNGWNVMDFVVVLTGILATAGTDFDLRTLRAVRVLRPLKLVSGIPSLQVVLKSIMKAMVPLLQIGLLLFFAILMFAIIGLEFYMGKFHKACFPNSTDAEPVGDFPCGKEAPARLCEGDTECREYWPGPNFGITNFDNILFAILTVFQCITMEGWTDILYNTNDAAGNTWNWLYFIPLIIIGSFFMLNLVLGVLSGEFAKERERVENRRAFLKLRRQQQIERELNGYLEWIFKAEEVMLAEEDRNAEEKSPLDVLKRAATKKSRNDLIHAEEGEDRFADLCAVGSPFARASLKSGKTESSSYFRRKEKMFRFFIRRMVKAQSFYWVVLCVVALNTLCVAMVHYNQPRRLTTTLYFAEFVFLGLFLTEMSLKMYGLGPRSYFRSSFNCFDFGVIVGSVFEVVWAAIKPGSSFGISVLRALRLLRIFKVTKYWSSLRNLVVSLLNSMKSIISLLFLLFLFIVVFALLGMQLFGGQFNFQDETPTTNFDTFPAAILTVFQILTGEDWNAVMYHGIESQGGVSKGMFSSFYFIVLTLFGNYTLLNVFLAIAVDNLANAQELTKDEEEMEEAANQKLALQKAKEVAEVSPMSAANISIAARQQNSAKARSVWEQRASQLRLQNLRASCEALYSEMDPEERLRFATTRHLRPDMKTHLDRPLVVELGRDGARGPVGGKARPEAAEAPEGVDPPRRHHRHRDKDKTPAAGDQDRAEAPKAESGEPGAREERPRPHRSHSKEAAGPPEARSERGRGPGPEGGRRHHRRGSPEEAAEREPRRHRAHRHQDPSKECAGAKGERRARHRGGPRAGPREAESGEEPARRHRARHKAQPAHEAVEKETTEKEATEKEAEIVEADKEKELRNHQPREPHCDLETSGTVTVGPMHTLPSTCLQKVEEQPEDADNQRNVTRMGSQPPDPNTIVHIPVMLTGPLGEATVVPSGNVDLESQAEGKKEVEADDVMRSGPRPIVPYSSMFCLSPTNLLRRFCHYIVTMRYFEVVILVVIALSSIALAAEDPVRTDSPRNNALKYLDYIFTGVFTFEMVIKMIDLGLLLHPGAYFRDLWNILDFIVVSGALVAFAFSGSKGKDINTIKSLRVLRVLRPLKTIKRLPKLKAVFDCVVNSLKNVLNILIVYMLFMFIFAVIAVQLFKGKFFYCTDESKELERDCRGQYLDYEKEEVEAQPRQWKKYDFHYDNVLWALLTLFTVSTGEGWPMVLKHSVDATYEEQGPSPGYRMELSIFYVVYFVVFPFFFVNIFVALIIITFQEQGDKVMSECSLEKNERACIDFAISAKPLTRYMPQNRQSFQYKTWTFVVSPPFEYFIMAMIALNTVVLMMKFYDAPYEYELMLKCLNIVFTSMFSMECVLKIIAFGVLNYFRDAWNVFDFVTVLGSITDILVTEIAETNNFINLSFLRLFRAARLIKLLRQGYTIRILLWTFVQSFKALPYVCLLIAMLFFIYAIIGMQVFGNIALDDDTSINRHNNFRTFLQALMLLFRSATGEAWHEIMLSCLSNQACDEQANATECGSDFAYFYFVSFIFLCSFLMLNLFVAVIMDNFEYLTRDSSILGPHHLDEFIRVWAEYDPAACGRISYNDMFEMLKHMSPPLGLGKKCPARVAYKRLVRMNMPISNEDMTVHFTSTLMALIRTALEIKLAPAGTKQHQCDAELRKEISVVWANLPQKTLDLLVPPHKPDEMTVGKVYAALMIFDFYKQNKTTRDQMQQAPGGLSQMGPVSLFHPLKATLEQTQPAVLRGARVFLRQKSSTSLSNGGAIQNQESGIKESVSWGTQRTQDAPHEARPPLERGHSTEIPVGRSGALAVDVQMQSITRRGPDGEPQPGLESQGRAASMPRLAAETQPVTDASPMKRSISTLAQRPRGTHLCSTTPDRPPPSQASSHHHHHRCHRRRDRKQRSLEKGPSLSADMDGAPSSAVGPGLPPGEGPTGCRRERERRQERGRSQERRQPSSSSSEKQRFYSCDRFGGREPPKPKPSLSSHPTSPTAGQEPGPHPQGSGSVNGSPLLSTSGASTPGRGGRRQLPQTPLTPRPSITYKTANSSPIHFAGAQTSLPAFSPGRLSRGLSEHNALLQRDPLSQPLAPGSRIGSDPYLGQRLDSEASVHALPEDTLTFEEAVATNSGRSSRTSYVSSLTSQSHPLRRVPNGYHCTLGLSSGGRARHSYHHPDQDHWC
Chain of human Cav2.2 (P54289 25-956 partner limits assumed): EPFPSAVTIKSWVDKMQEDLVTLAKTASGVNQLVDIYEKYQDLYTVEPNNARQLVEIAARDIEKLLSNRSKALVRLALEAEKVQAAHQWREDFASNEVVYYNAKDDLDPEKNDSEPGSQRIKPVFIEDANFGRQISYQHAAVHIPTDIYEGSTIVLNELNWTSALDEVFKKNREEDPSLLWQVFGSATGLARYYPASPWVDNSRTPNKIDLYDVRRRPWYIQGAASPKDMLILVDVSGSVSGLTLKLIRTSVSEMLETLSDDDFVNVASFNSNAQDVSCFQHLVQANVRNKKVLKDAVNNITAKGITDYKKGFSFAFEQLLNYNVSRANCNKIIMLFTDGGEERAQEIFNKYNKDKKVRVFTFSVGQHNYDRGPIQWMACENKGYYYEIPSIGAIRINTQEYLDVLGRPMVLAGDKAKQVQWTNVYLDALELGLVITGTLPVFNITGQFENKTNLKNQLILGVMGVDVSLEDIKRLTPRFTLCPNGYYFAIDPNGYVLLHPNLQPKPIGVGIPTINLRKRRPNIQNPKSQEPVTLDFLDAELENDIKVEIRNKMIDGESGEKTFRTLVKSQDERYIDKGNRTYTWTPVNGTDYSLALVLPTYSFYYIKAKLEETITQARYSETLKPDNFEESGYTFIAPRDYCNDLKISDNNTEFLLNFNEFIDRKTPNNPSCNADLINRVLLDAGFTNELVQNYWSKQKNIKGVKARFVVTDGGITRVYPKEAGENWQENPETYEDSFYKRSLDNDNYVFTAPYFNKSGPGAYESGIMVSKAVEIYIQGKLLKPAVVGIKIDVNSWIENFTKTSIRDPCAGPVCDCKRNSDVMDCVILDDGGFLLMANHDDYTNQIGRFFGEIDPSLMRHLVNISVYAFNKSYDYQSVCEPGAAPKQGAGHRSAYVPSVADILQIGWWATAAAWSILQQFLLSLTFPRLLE
Chain of human Cav2.2 (P54289 957-1103 partner limits assumed): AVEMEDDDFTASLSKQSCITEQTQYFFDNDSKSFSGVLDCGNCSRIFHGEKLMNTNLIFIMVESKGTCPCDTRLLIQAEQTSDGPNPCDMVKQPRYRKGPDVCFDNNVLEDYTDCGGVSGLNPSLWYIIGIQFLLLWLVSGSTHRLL
Chain of human Cav2.2 (P54284 whole entry partner): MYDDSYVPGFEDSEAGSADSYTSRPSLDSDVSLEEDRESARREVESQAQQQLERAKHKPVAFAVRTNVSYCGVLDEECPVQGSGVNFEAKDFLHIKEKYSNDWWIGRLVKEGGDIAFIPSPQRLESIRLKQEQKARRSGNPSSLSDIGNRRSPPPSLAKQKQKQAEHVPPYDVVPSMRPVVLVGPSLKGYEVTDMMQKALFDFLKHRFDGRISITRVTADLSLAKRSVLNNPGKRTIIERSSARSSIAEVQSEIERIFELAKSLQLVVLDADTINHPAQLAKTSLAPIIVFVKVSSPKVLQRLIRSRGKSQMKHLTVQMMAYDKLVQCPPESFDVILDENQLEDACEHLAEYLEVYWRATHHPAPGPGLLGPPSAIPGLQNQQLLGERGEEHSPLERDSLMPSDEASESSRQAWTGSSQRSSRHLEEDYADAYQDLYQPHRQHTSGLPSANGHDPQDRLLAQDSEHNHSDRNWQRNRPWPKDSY

Molecule	IC50
Fc1ccc2[nH]cc(CN[C@H]3CC[C@@H]4CN(c5cccc(C(F)(F)F)n5)C[C@@H]43)c2c1 [Example 678, (3aR,4S,6aS)-N-[(5-fluoro-1H-indol-3-yl)methyl]-2-[6-(trifluoromethyl)pyridin-2-yl]octahydrocyclopenta[c]pyrrol-4-amine]	0.69 µM
O=C(N[C@H]1CC[C@H]2CN(Cc3cccc(OC(F)(F)F)c3)C[C@H]21)C(C1CCCCC1)C1CCCCC1 [Example 63, 2,2-dicyclohexyl-N-{(3aS,4S,6aR)-2-[3-(trifluoromethoxy)benzyl]octahydrocyclopenta[c]pyrrol-4-yl}acetamide]	0.51 µM
CC[C@H](C)[C@H](NC)C(=O)N[C@H]1CC[C@@H]2CN(S(=O)(=O)c3ccc(C(F)(F)F)cc3)C[C@@H]21 [Example 411, N^2-methyl-N^1-((3aR,4S,6aS)-2-{[4-(trifluoromethyl)phenyl]sulfonyl}octahydrocyclopenta[c]pyrrol-4-yl)-L-isoleucinamide]	2.31 µM
CS(=O)(=O)N1CCCC[C@H]1C(=O)N[C@@H]1CC[C@H]2CN(Cc3ccccc3)C[C@H]21 [Example 514, (2S)-N-[(3aS,4R,6aR)-2-benzyloctahydrocyclopenta[c]pyrrol-4-yl]-1-(methylsulfonyl)piperidine-2-carboxamide]	> 22.5 µM
CC[C@H](NC(C)C)C(=O)N[C@H]1CC[C@@H]2CN(c3ccc(C(F)(F)F)cc3)C[C@@H]21 [Example 762, (2S)-2-(isopropylamino)-N-{(3aR,4S,6aS)-2-[4-(trifluoromethyl)phenyl]octahydrocyclopenta[c]pyrrol-4-yl}butanamide]	5.11 µM
O=C(N[C@H]1CC[C@H]2CN(Cc3cccc(C(F)(F)F)c3)C[C@H]21)C(O)C1CCCCC1 (stereo partly drawn) [Example 237, 2-cyclohexyl-2-hydroxy-N-{(3aS,4S,6aR)-2-[3-(trifluoromethyl)benzyl]octahydrocyclopenta[c]pyrrol-4-yl}acetamide]	1.46 µM
Fc1ccc(-c2c[nH]c(CN[C@H]3CC[C@@H]4CN(c5cccc(C(F)(F)F)n5)C[C@@H]43)n2)cc1 [Example 744, (3aR,4S,6aS)-N-{[4-(4-fluorophenyl)-1H-imidazol-2-yl]methyl}-2-[6-(trifluoromethyl)pyridin-2-yl]octahydrocyclopenta[c]pyrrol-4-amine]	1.21 µM
O=S(=O)(N[C@H]1CC[C@@H]2CN(c3cccc(C(F)(F)F)n3)C[C@@H]21)c1ccccc1Cl [Example 701, 2-chloro-N-{(3aR,4S,6aS)-2-[6-(trifluoromethyl)pyridin-2-yl]octahydrocyclopenta[c]pyrrol-4-yl}benzenesulfonamide]	4.5 µM
CN[C@H](CC(C)C)C(=O)N[C@@H]1CC[C@H]2CN(c3ccc(C(F)(F)F)cc3)C[C@H]21 [Example 768, N^2-methyl-N-{(3aS,4R,6aR)-2-[4-(trifluoromethyl)phenyl]octahydrocyclopenta[c]pyrrol-4-yl}-D-leucinamide]	2.36 µM
O=C(N[C@H]1CC[C@H]2CN(Cc3ccccc3)C[C@H]21)C1(c2ccccc2)CCCC1 (relative stereo) [Example 1, N-[(3aS*,4S*,6aR*)-2-benzyloctahydrocyclopenta[c]pyrrol-4-yl]-1-phenylcyclopentanecarboxamide]	1.93 µM
Cc1c[nH]c(CN[C@H]2CC[C@@H]3CN(c4cccc(C(F)(F)F)n4)C[C@@H]32)n1 [Example 670, (3aR,4S,6aS)-N-[(4-methyl-1H-imidazol-2-yl)methyl]-2-[6-(trifluoromethyl)pyridin-2-yl]octahydrocyclopenta[c]pyrrol-4-amine]	1.17 µM
CN[C@@H](CC(C)C)C(=O)N[C@H]1CC[C@@H]2CN(Cc3ccc(F)cc3)C[C@@H]21 [Example 381, N^1-[(3aR,4S,6aS)-2-(4-fluorobenzyl)octahydrocyclopenta[c]pyrrol-4-yl]-N^2-methyl-L-leucinamide]	> 30 µM
N#Cc1cccc(N2C[C@H]3CC[C@H](NC(=O)[C@@H]4C[C@@H](F)CN4)[C@H]3C2)c1 [Example 632, (4R)-N-[(3aR,4S,6aS)-2-(3-cyanophenyl)octahydrocyclopenta[c]pyrrol-4-yl]-4-fluoro-L-prolinamide]	18.9 µM
CCC[C@H](N)C(=O)N[C@@H]1CC[C@H]2CN(S(=O)(=O)c3ccc(C(F)(F)F)cc3)C[C@H]21 [Example 423, N^1-((3aS,4R,6aR)-2-{[4-(trifluoromethyl)phenyl]sulfonyl}octahydrocyclopenta[c]pyrrol-4-yl)-L-norvalinamide]	6.46 µM
O=C(N[C@H]1CC[C@@H]2CN(S(=O)(=O)c3cccc(C(F)(F)F)c3)C[C@@H]21)[C@@H]1CCCN1 [Example 387, N-((3aR,4S,6aS)-2-{[3-(trifluoromethyl)phenyl]sulfonyl}octahydrocyclopenta[c]pyrrol-4-yl)-L-prolinamide]	5.87 µM
CCC[C@H](NC)C(=O)N[C@H]1CC[C@@H]2CN(c3ccc(OC(F)(F)F)cc3)C[C@@H]21 [Example 719, N^2-methyl-N-{(3aR,4S,6aS)-2-[4-(trifluoromethoxy)phenyl]octahydrocyclopenta[c]pyrrol-4-yl}-L-norvalinamide]	10.6 µM
CN[C@@H](CC(C)C)C(=O)N[C@H]1CC[C@@H]2CN(c3ccc(F)c(Cl)c3)C[C@@H]21 [Example 773, N-[(3aR,4S,6aS)-2-(3-chloro-4-fluorophenyl)octahydrocyclopenta[c]pyrrol-4-yl]-N^2-methyl-L-leucinamide]	1.79 µM
CC(C)(C)C[C@H](NCC1CC1)C(=O)N[C@H]1CC[C@@H]2CN(c3ccc(C(F)(F)F)cn3)C[C@@H]21 [Example 478, N^2-(cyclopropylmethyl)-4-methyl-N^1-{(3aR,4S,6aS)-2-[5-(trifluoromethyl)pyridin-2-yl]octahydrocyclopenta[c]pyrrol-4-yl}-L-leucinamide]	0.46 µM
CC(C)(C)NC(=O)N[C@H]1CC[C@@H]2CN(c3ccc(OC(F)(F)F)cc3)C[C@@H]21 [Example 778, 1-tert-butyl-3-{(3aR,4S,6aS)-2-[4-(trifluoromethoxy)phenyl]octahydrocyclopenta[c]pyrrol-4-yl}urea]	4.27 µM
O=C(CCC(F)(F)F)N[C@H]1CC[C@@H]2CN(c3cccc(C(F)(F)F)n3)C[C@@H]21 [Example 582, 4,4,4-trifluoro-N-{(3aR,4S,6aS)-2-[6-(trifluoromethyl)pyridin-2-yl]octahydrocyclopenta[c]pyrrol-4-yl}butanamide]	0.96 µM

Same assay, conditions: read-out: IC50 (μM) or percent inhibition (* indicates 3 minute incubation, otherwise 60 minute); IC50; 60 minute pre-incubation with compound; IMR32 cells, 80 mM KCl depolarization

Molecule	IC50
N-methyl-N-((3aR,4S,6aS)-2-{[3-(trifluoromethyl)phenyl]sulfonyl}octahydrocyclopenta[c]pyrrol-4-yl)-L-phenylalaninamide [Example 386]	1.62 µM
O=C(N[C@H]1CC[C@H]2CN(Cc3cccnc3)C[C@H]21)C(C1CCCCC1)C1CCCCC1 [Example 73, 2,2-dicyclohexyl-N-[(3aS,4S,6aR)-2-(pyridin-3-ylmethyl)octahydrocyclopenta[c]pyrrol-4-yl]acetamide]	3.26 µM
O=S(=O)(N[C@@H]1CC[C@H]2CN(Cc3cc(C(F)(F)F)cc(C(F)(F)F)c3)C[C@H]21)c1cccc(C(F)(F)F)c1 [Example 192, N-{(3aS,4R,6aR)-2-[3,5-bis(trifluoromethyl)benzyl]octahydrocyclopenta[c]pyrrol-4-yl}-3-(trifluoromethyl)benzenesulfonamide]	2.27 µM
CC(C)C(C(=O)N[C@H]1CC[C@@H]2CN(CCC(c3ccccc3)c3ccccc3)C[C@@H]21)c1ccccc1 (stereo partly drawn) [Example 116, N-[(3aR,4S,6aS)-2-(3,3-diphenylpropyl)octahydrocyclopenta[c]pyrrol-4-yl]-3-methyl-2-phenylbutanamide]	1.17 µM
CC(C)N[C@@H](CC1CCCCC1)C(=O)N[C@H]1CC[C@@H]2CN(S(=O)(=O)c3ccc(C(F)(F)F)cc3)C[C@@H]21 [Example 485, 3-cyclohexyl-N^2-isopropyl-N^1-((3aR,4S,6aS)-2-{[4-(trifluoromethyl)phenyl]sulfonyl}octahydrocyclopenta[c]pyrrol-4-yl)-L-alaninamide]	1.49 µM
CC(C)C[C@@H](C(=O)N[C@H]1CC[C@H]2CN(Cc3cccc(C(F)(F)F)c3)C[C@H]21)N(C)S(C)(=O)=O [Example 167, N^2-methyl-N^2-(methylsulfonyl)-N^1-{(3aS,4S,6aR)-2-[3-(trifluoromethyl)benzyl]octahydrocyclopenta[c]pyrrol-4-yl}-L-leucinamide]	1.21 µM
CC(C)C[C@H](NS(=O)(=O)CC(C)C)C(=O)N[C@@H]1CC[C@H]2CN(Cc3cccc(C(F)(F)F)c3)C[C@H]21 [Example 173, N^2-(isobutylsulfonyl)-N^1-{(3aS,4R,6aR)-2-[3-(trifluoromethyl)benzyl]octahydrocyclopenta[c]pyrrol-4-yl}-L-leucinamide]	1.81 µM
CC(C)C(C(=O)N[C@H]1CC[C@@H]2CN(CCCCC(c3ccc(F)cc3)c3ccc(F)cc3)C[C@@H]21)c1ccccc1 (stereo partly drawn) [Example 119, N-{(3aR,4S,6aS)-2-[5,5-bis(4-fluorophenyl)pentyl]octahydrocyclopenta[c]pyrrol-4-yl}-3-methyl-2-phenylbutanamide]	1.12 µM
COc1ccccc1CN1C[C@H]2CC[C@H](NC(=O)C(c3ccccc3)C(C)C)[C@H]2C1 (stereo partly drawn) [Example 94, N-[(3aR,4S,6aS)-2-(2-methoxybenzyl)octahydrocyclopenta[c]pyrrol-4-yl]-3-methyl-2-phenylbutanamide]	2.33 µM
CC(C)C[C@H](NS(=O)(=O)c1ccccc1)C(=O)N[C@@H]1CC[C@H]2CN(Cc3cccc(C(F)(F)F)c3)C[C@H]21 [Example 523, N^2-(phenylsulfonyl)-N^1-{(3aS,4R,6aR)-2-[3-(trifluoromethyl)benzyl]octahydrocyclopenta[c]pyrrol-4-yl}-L-leucinamide]	4.44 µM
CC(C)(C)C[C@H](N)C(=O)N[C@H]1CC[C@@H]2CN(Cc3ccccc3)C[C@@H]21 [Example 361, N^1-[(3aR,4S,6aS)-2-benzyloctahydrocyclopenta[c]pyrrol-4-yl]-4-methyl-L-leucinamide]	24.7 µM
